Values of other authors, collected in patent US20070185065A1, “Combination therapy for coronary artery disease” (priority 2006, published 2007).
Where two headings read alike, the source gives them in different places.

Assays:
[1] = tested on: patients with atherosclerosis not limited to MI; details: compared to aspirin, three year period
[2] = tested on: patients with known CHD and an HDL-C concentration below 45 mg/dL already receiving a statin
[3] = tested on: proinflammatory cytokines and C-reactive protein (CRP); details: six weeks of therapy
[4] = tested on: asymptomatic patients with an LVEF 40 percent after MI; details: mean follow-up of 42 months
[5] = tested on: patients with systolic left ventricular dysfunction (SLVD) post-MI
[6] = tested on: patients with chronic stable angina; details: six weeks therapy, metoprolol 200 mg daily
[7] = tested on: patients with clinical evidence of HF post-MI
[8] = tested on: patients who have had an acute MI; details: 160 mg twice daily

COC(=O)[C@H](c1ccccc1Cl)N1CCc2sccc2C1 [Clopidogrel, clopidogrel]
fatal or nonfatal MI [1]: significant reduction

O=C(O)c1cccnc1 [ER niacin, niacin]
mean increase in HDL-C ([2]; 1000 mg daily, on top of a statin): 21%
HDL-C on treatment ([2]; 1000 mg daily, 1.0 mmol/L at baseline): 1.22 mmol/L
HDL-C on treatment ([2]; 1000 mg daily, 39 mg/dL at baseline): 47 mg/dL
cardiovascular events, percent of patients ([2]; 9.6 percent with placebo, p=0.20): 3.8%
increase in mean carotid intima-media thickness (CIMT) ([2]; after one year of therapy, ultrasound, p=0.23, placebo 0.044 mm): 0.014 mm

CC(=O)Oc1ccccc1C(=O)O [aspirin]
markers of inflammation (proinflammatory cytokines and CRP) [3]: significantly reduced

C[C@H](CS)C(=O)N1CCC[C@H]1C(=O)O [captopril]
reduction in hospitalization for HF [4]: 22%
reduction in the incidence of recurrent MI [4]: 25%
reduction in the incidence of severe HF [4]: 37%
decrease in mortality ([4]; versus placebo, 95% CI 3 to 32 percent): 19%
mortality ([4]; 25 percent for placebo): 20%

COC(=O)[C@@H]1CC2=CC(=O)CC[C@]2(C)[C@@]23O[C@@H]2C[C@@]2(C)[C@@H](CC[C@@]24CCC(=O)O4)[C@H]13 [eplerenone]
reduction in combined primary endpoint of CV mortality and CV hospitalization ([5]; added to standard therapy): 13%
reduction in CV mortality ([5]; added to standard therapy, P=0.005): 17%
reduction in all-cause mortality ([5]; added to standard therapy, P=0.008): 15%
further reduction in mortality ([5]; subgroup already receiving ACE inhibitors and beta-blockers): 27%

COCCc1ccc(OCC(O)CNC(C)C)cc1 (centres unmarked) [metoprolol]
increase in mean exercise time to 1-mm ST segment depression ([6]; long-acting preparations, nifedipine 20 mg BID): 70 s
frequency of angina [6]: reduced the frequency of angina

CCOC(=O)[C@H](CCc1ccccc1)N[C@@H](C)C(=O)N1[C@H](C(=O)O)C[C@@H]2CCC[C@@H]21 [ramipril]
mortality ([7]; 603 United Kingdom patients followed for a mean of 59 months, 39 percent placebo): 28%
reduction in sudden death ([7]; average of 15 months follow-up): 30%
reduction in the incidence of severe, resistant HF ([7]; average of 15 months follow-up): 23%
decrease in mortality ([7]; average of 15 months follow-up, versus placebo, 95% CI 11 to 40 percent): 27%
incidence of severe, resistant HF ([7]; average of 15 months follow-up, 18 percent for placebo): 14%
mortality ([7]; average of 15 months follow-up, 23 percent with placebo): 17%
relative risk reduction (mortality) ([7]; mean of 59 months, 95% CI 15 to 52 percent): 36%

CCCCC(=O)N(Cc1ccc(-c2ccccc2-c2nnn[nH]2)cc1)[C@H](C(=O)O)C(C)C [valsartan]
reduction in mortality after an MI compared to an ACE inhibitor [8]: as effective as an ACE inhibitor
